# Test results taken from patent US20170189504A1, “NOVEL PEPTIDES AND COMBINATION OF PEPTIDES FOR USE IN IMMUNOTHERAPY AGAINST VARIOUS CANCERS” (immatics biotechnologies GmbH, priority 2015, published 2017).
# Tests used:
# CD8+ T cells = experiment: In vitro immunogenicity: T-cell priming with aAPCs loaded with peptide/MHC complexes and anti-CD28 antibody, pMHC multimer readout (Tables 19A, 19B); format: cell-based, human; conditions: in vitro immunogenicity of HLA class I peptides, pMHC multimer readout after priming of CD8+ T cells
# Description: In an aspect, the peptides are pre-screened for immunogenicity before being included in the warehouse. By way of example, and not limitation, the immunogenicity of the peptides included in the warehouse is determined by a method comprising in vitro T-cell priming through repeated stimulations of CD8+ T cells from healthy donors with artificial antigen presenting cells loaded with peptide/MHC complexes and anti-CD28 antibody.
# In order to obtain information regarding the immunogenicity of the TUMAPs of the present invention, the inventors performed investigations using an in vitro T-cell priming assay based on repeated stimulations of CD8+ T cells with artificial antigen presenting cells (aAPCs) loaded with peptide/MHC complexes and anti-CD28 antibody.
# In order to perform in vitro stimulations by artificial antigen presenting cells loaded with peptide-MHC complex (pMHC) and anti-CD28 antibody, the inventors first isolated CD8+ T cells from fresh HLA-A*02 leukapheresis products via positive selection using CD8 microbeads (Miltenyi Biotec, Bergisch-Gladbach, Germany) of healthy donors obtained from the University clinics Mannheim, Germany, after informed consent.
# PBMCs and isolated CD8+ lymphocytes were incubated in T-cell medium (TCM) until use consisting of RPMI-Glutamax (Invitrogen, Karlsruhe, Germany) supplemented with 10% heat inactivated human AB serum (PAN-Biotech, Aidenbach, Germany), 100 U/ml Penicillin/100 μg/ml Streptomycin (Cambrex, Cologne, Germany), 1 mM sodium pyruvate (CC Pro, Oberdorla, Germany), 20 μg/ml Gentamycin (Cambrex). 2.5 ng/ml IL7 (PromoCell, Heidelberg, Germany) and 10 U/ml IL-2 (Novartis Pharma, Nurnberg, Germany) were also added to the TCM at this step.
# Generation of pMHC/anti-CD28 coated beads, T-cell stimulations and readout was performed in a highly defined in vitro system using four different pMHC molecules per stimulation condition and 8 different pMHC molecules per readout condition.
# The purified co-stimulatory mouse IgG2a anti human CD28 Ab 9.3 (Jung et al., 1987) was chemically biotinylated using Sulfo-N-hydroxysuccinimidobiotin as recommended by the manufacturer (Perbio, Bonn, Germany). Beads used were 5.6 μm diameter streptavidin coated polystyrene particles (Bangs Laboratories, Illinois, USA).
# pMHC used for positive and negative control stimulations were A*0201/MLA-001 (peptide […] (SEQ ID NO. 303) from modified Melan-A/MART-1) and A*0201/DDX5-001 ([…] from DDX5, SEQ ID NO. 304), respectively.
# 800.000 beads/200 μl were coated in 96-well plates in the presence of 4×12.5 ng different biotin-pMHC, washed and 600 ng biotin anti-CD28 were added subsequently in a volume of 200 μl. Stimulations were initiated in 96-well plates by co-incubating […] CD8+ T cells with 2×10^5 washed coated beads in 200 μl TCM supplemented with 5 ng/ml IL-12 (PromoCell) for 3 days at 37° C. Half of the medium was then exchanged by fresh TCM supplemented with 80 U/ml IL-2 and incubating was continued for 4 days at 37° C. This stimulation cycle was performed for a total of three times. For the pMHC multimer readout using 8 different pMHC molecules per condition, a two-dimensional combinatorial coding approach was used as previously described (Andersen et al., 2012) with minor modifications encompassing coupling to 5 different fluorochromes. Finally, multimeric analyses were performed by staining the cells with Live/dead near IR dye (Invitrogen, Karlsruhe, Germany), CD8-FITC antibody clone SK1 (BD, Heidelberg, Germany) and fluorescent pMHC multimers. For analysis, a BD LSRII SORP cytometer equipped with appropriate lasers and filters was used. Peptide specific cells were calculated as percentage of total CD8+ cells. Evaluation of multimeric analysis was done using the FlowJo software (Tree Star, Oreg., USA). In vitro priming of specific multimer+ CD8+ lymphocytes was detected by comparing to negative control stimulations.
# HLA-A*24 = experiment: MHC binding assay, UV-ligand exchange with β2m ELISA, HLA-A*24 (Table 21); design: species or system human; conditions: binding to HLA-A*24 ranged by peptide exchange yield (UV-ligand exchange, β2m ELISA)
# Method in brief: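 Peptide–MHC complexes made by UV-ligand exchange of a UV-cleavable peptide, diluted 100-fold and captured on streptavidin plates. Stabilized complexes detected by HRP anti-β2m ELISA (1 h, 37° C, A450). Exchange yield derived against refolded HLA-A*02:01/MLA-001 monomer standards (15-500 ng/ml).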
Peptide exchange (HLA-A*24),Substance,Wells positive [%] (CD8+ T cells)
++ (20%-49% = ++),281 (PYRLIFEKF; listed as Homo sapiens) [compound 281],+++ (50%-69% = +++)
+++ (50%-75% = +++),285 (HYPPVQVLF; listed as Homo sapiens) [compound 285],+ (<20% = +)
